For one test, the target named is T1, JAK1 (Homo sapiens, UniProt P23458).
T1 construct: endogenous in cells; host or cells: Molt4 (ATCC CRL-1582) and Ramos (ATCC CRL-1596), mixed lysate 1:2
The experiment in a line: Kinobeads assay, JAK1. The format is binding. The note with it: mixed Molt4/Ramos lysate, read-out: Inhibition values (IC50) JAK1. The procedure, abridged:
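Mixed Molt4/Ramos cell lysate (1:2) was incubated 3 hours in the cold with kinobeads and a 9-step 1:3 compound dilution series. The no-compound control carried 2% DMSO. Bead-bound JAK1 was eluted, detected by antibody dot blot with infrared fluorescence, and IC50 derived from dose-response curves.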

In the next test the target is T2, JAK2 (Homo sapiens, UniProt O60674).
T2 construct: endogenous in cells; host or cells: Molt4 (ATCC CRL-1582) and Ramos (ATCC CRL-1596), mixed lysate 1:2
T2 sequence (O60674 whole entry): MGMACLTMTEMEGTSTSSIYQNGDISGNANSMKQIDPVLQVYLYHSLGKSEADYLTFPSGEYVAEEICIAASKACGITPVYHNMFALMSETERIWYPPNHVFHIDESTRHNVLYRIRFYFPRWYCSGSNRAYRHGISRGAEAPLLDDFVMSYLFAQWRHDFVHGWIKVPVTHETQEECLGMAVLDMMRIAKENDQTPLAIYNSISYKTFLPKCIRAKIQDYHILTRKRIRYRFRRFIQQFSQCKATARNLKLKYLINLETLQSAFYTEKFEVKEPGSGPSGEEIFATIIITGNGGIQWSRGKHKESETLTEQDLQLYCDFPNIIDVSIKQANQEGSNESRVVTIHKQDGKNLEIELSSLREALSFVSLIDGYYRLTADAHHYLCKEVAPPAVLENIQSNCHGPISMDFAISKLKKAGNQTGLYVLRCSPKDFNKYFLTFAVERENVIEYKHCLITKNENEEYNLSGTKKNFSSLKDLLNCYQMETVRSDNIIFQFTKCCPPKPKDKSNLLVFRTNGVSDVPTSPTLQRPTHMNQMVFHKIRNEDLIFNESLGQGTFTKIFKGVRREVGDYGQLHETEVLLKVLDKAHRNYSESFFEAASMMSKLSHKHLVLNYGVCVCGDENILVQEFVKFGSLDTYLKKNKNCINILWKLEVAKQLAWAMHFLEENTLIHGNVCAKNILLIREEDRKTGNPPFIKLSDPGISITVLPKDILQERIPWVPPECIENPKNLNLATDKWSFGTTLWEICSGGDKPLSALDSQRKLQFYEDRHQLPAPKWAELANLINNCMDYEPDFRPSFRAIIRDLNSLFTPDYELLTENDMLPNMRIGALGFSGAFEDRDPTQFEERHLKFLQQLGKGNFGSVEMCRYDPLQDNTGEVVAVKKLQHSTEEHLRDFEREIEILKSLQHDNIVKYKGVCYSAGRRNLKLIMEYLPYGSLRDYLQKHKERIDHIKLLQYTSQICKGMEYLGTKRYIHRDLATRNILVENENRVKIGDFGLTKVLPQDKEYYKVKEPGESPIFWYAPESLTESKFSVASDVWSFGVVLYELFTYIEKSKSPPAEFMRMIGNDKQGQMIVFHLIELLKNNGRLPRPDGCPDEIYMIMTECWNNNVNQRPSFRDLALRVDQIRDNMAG
The experiment in a line: Kinobeads assay, JAK2. The format is binding. The note with it: mixed Molt4/Ramos lysate, read-out: Inhibition values (IC50) JAK2. The procedure, abridged: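 Mixed Molt4/Ramos lysate (1:2, 10 mg/mL protein) was incubated 3 h in the cold with the immobilized aminopyrido-pyrimidine affinity matrix and compound, 9-step 1:3 dilutions. Bead-bound kinases were eluted and quantified by antibody dot blot with infrared detection. IC50s are from dose-response curves.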

SMILES strings stand for the structures.

For orientation: IC50 means the concentration at which inhibition is half-maximal.

T1 sequence (P23458 whole entry): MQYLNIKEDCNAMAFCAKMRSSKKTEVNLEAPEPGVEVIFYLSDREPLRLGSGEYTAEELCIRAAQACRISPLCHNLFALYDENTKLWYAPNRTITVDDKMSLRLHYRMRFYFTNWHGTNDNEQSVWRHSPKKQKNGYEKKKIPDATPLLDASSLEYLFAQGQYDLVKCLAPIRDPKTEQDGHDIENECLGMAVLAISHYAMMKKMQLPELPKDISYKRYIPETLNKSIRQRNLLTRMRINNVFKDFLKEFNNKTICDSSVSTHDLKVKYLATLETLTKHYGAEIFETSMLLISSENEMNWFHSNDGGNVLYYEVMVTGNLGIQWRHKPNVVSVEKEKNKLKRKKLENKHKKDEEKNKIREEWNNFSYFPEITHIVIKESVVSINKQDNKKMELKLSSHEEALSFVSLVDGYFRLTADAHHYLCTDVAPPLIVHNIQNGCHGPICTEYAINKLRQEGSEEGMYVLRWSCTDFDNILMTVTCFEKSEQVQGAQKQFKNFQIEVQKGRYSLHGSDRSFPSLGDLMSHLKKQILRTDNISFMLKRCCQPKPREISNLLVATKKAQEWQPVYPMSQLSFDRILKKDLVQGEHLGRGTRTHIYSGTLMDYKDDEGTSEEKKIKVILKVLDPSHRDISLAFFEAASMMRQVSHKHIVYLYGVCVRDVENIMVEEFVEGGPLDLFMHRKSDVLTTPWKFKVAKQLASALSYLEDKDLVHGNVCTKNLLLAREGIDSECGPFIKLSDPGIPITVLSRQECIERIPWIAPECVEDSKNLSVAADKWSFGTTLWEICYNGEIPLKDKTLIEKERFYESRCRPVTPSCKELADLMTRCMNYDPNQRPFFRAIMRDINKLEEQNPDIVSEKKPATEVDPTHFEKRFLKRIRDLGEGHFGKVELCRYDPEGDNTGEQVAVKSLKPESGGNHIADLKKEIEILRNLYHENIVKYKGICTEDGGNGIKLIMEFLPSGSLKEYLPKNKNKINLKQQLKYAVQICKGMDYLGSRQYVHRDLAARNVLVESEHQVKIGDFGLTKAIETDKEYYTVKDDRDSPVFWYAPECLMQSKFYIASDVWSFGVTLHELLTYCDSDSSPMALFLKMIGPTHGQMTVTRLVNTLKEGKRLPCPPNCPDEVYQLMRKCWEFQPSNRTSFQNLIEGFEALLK

With `Cn1cc(Nc2ncc(F)c(N[C@H](CO)c3ccccc3)n2)cn1` [Compound 3], the IC50 was 1000 to 10000 nM on JAK1 and ≥ 10000 nM at JAK2.

As to `Cn1cc(Nc2ncc(Cl)c(N[C@H](CO)c3cccc(F)c3)n2)cn1` [Compound 85], the IC50 at JAK1 and on JAK2 was 100 to 1000 nM each time.

Regarding `OCCn1cc(Nc2ncc(Cl)c(N[C@H](CO)c3cccc(F)c3)n2)cn1` [Compound 86], the IC50 at JAK1 and on JAK2 was 100 to 1000 nM each time.

`NC(=O)Cn1cc(Nc2ncc(Cl)c(N[C@H](CO)c3cccc(F)c3)n2)cn1` [Compound 87]: the IC50 at JAK1 was < 100 nM; at JAK2 it was 100 to 1000 nM.

On to `OC[C@@H](Nc1nc(Nc2cn[nH]c2)ncc1Cl)c1cccc(F)c1` [Compound 88], for which the IC50 at JAK1 and on JAK2 was 100 to 1000 nM throughout.

Regarding `CN(C)CCNC(=O)Cn1cc(Nc2ncc(Cl)c(N[C@H](CO)c3ccccc3)n2)cn1` [Compound 89], the IC50 was in the range of 100 to 1000 nM at JAK1 and 1000 to 10000 nM at JAK2.

Consider `CN(C)CCCNC(=O)Cn1cc(Nc2ncc(Cl)c(N[C@H](CO)c3ccccc3)n2)cn1` [Compound 90], for which the figures for the IC50 on JAK1 and at JAK2 were 100 to 1000 nM and 1000 to 10000 nM, respectively.

As to `Cn1cc(Nc2ncc(Cl)c(N[C@H](CO)c3cccnc3)n2)cn1` [Compound 91], the IC50 was 100 to 1000 nM at JAK1 and 1000 to 10000 nM at JAK2.

For the compound `OCCn1cc(Nc2ncc(Cl)c(N[C@H](CO)c3cccnc3)n2)cn1` [Compound 92], the IC50 lay within 100 to 1000 nM on JAK1 and 1000 to 10000 nM on JAK2.

Take `OCCn1cc(Nc2ncc(Cl)c(NC(CO)c3cccc(Br)c3)n2)cn1` (centres unmarked) [Compound 93]: the IC50 at JAK1 and at JAK2 was 1000 to 10000 nM in each case.

For the origin of these results see patent US20140179664A1, “Heterocyclyl Pyrimidine Analogues As JAK Inhibitors” (Cellzome Limited, priority 2011, published 2014).
